Assay results as given in US20240067600A1, “SMALL MOLECULE INHIBITORS OF THE MITOCHONDRIAL PERMEABILITY TRANSITION PORE (mtPTP)” (UNIVERSITY OF KANSAS, priority 2014, published 2024).
Where two headings read alike, the source gives them in different places.

Columns and labels:
Assay type in all cases: biochemical, mice
[1] = system: Mitochondrial Permeability Transition Pore; assay: Mitochondrial swelling absorbance assay
Protocol: Mitochondrial Swelling (Hit Validation, Confirmatory Assay, Concentration-Response, AID No. 720722)
Assay buffer: 250 mM sucrose, 10 mM MOPS-Tris, 0.01 mM EGTA-Tris, 1.0 mM phosphoric acid-Tris, pH 7.4 • Solution 1. 5.0 mM glutamate and 2.5 mM malate in Assay buffer. • Solution 2. 80-120 μM CaCl2) depending on mitochondrial activity in Solution 1. Note: Concentration of Ca^2+ in the assay is dependent upon the activity of the isolated mitochondria which is determined via a calcium titration just before each screening batch. A Ca^2+ concentration is used that allows for the arrival at a 2:1 window at the 20 minute time period. • Solution 3. 1% DMSO in Solution 2. • Solution 4. 2.0 mM EGTA-Tris, pH 7.4 in Solution 3. • Solution 5. 0.5 mg/mL mitochondria in Assay Buffer.
Protocol Summary: • 1. Freshly isolate mitochondria, prepare solutions according to the recipes in the reagent section • 2. Dispense 100 μL of Solution 4 to Columns 1-2 and Solution 3 Columns 11-12 (positive and negative controls, respectively) of the 96-well clear assay plate (Falcon 353072) • 3. Dispense 200 μL of Solution 1 to Row A Columns 3-10. • 4. Next, dispense 100 μL of Solution 3 to Rows B-H Columns 3-10. • 5. Add 4 μL of 5 mM test compounds in DMSO to Row A Columns 3-10, perform 1:2 serial dilutions Row A to H Columns 3-10. • 6. Finally, dispense 100 μL of Solution 5 in all wells. The reaction starts. • 7. Keep the plate at room temperature for 20 minutes and then read absorbance at 540 nm on MultiSkan EX, Thermo Scientific.
Concentration-Response Assay to Identify Compounds that Inhibit Mitochondrial Swelling (SAR Assay AID No. 743359)
Assay buffer: 250 mM sucrose, 10 mM MOPS-Tris, 0.01 mM EGTA-Tris, 1.0 mM phosphoric acid, pH 7.4 • Solution 1. 5.0 mM glutamate and 2.5 mM malate in Assay Buffer. • Solution 2. 100-120 μM CaCl2) depending on mitochondrial activity in Solution 1. Note: Concentration of Ca^2+ in the assay is dependent upon the activity of the isolated mitochondria which is determined via a calcium titration just before each screening batch. A Ca^2+ concentration is used that allows for the arrival at a 2:1 window at the 20 minute time period. • Solution 3. 1% DMSO in Solution 2. • Solution 4. 2.0 mM EGTA-Tris, pH 7.4 in Solution 3. • Solution 5. 0.5 mg/mL mitochondria in Assay Buffer.
Protocol Summary: • 1. Freshly isolate mitochondria, prepare solutions according to the recipes in the Reagent Section. • 2. Dispense 100 μL of Solution 4 to Columns 1-2 and Solution 3 Columns 11-12 (positive and negative controls, respectively) of the 96-well clear assay plate (Falcon 353072). • 3. Dispense 200 μL of Solution 1 to Row A Columns 3-10. • 4. Next, dispense 100 μL of Solution 3 to Rows B-H Columns 3-10. • 5. Add 4 μL of 5 mM test compounds in DMSO to Row A Columns 3-10, perform 1:2 serial dilutions Row A to H Columns 3-10. • 6. Finally, dispense 100 μL of Solution 5 in all wells. The reaction starts. • 7. Keep the plate at room temperature for 20 minutes and then read absorbance at 540 nm on MultiSkan EX, Thermo Scientific.

IMM potential = assay: Rhodamine 123 (Rh123) uptake counterscreen;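 also: isolated mitochondria respiring on glutamate plus malate in sucrose MOPS-Tris buffer at pH 7.4, Rh123 added with the organelles, compounds tested across a twofold dilution series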
Protocol: Assay buffer: 250 mM sucrose, 10 mM MOPS-Tris, 0.01 mM EGTA-Tris, 1.0 mM phosphoric acid-Tris, pH 7.4 • Solution 1. 5.0 mM glutamate and 2.5 mM malate in Assay Buffer. • Solution 2. 1% DMSO in Solution 1. • Solution 3. 0.8 μM FCCP (the stock 40 μM in DMSO) in Solution 1. • Solution 4. 0.5 mg/mL mitochondria and 0.8 μM Rh123 in Assay Buffer.
Protocol Summary: • 1. Freshly isolate mitochondria, prepare solutions according to the recipes in the Reagent Section. • 2. Dispense 100 μL of Solution 3 to Columns 1-2 and Solution 2 Columns 11-12 (positive and negative controls, respectively) of the 96-well black assay plate (Falcon 353376). • 3. Dispense 200 μL of Solution 1 to Row A Columns 3-10. • 4. Next, dispense 100 μL of Solution 2 to Rows B-H Columns 3-10. • 5. Add 4 μL of 10 mM test compounds in DMSO to Row A Columns 3-10, perform 1:2 serial dilutions Row A to H Columns 3-10. • 6. Finally, dispense 100 μL of Solution 4 in all wells. The reaction starts. • 7. Keep the plate at room temperature for 5 minutes and then read fluorescence (excitation 485 nm, emission 538 nm) on Fluoroskan Ascent FL, Thermo Scientific.
Concentration-Response Counterscreen Assay to Identify Compounds that Prevent Mitochondrial Swelling Via Interference with the IMM Potential (SAR Assay AID No. 743361)
Assay buffer: 250 mM sucrose, 10 mM MOPS-Tris, 0.01 mM EGTA-Tris, 1.0 mM phosphoric acid-Tris, pH 7.4 • Solution 1. 5.0 glutamate and 2.5 mM malate in Assay Buffer. • Solution 2. 1% DMSO in Solution 1. • Solution 3. 0.8 μM FCCP (the stock 40 μM in DMSO) in Solution 1. • Solution 4. 0.5 mg/mL mitochondria and 0.8 μM Rh123 in Assay Buffer.

mtPTP = assay: Calcium retention capacity (CRC) assay on isolated mitochondria; conditions: for Calcium Retention Capacity (CRC/CRC0 at 12.5 μM): 12.5 μM compound; for Calcium Retention Capacity (CRC/CRC0) at 1.56 μM: 1.56 μM compound
Protocol: Assay buffer: 250 mM sucrose, 10 mM MOPS-Tris, 0.01 mM EGTA-Tris, 1.0 mM phosphoric acid-Tris, pH 7.4. • Solution 1. 10 mM glutamate and 5 mM malate in Assay buffer. • Solution 2. 1% DMSO in Solution 2. • Solution 3. 0.5 mg/mL mitochondria and 1.0 μM Calcium Green-5N in Assay Buffer. • Solution 4. 0.25 mM CaCl2).
Protocol Summary: • 1. Freshly isolate mitochondria, prepare solutions according to the recipes in the Reagent Section. • 2. Dispense 100 μL of Solution 2 to Columns 1-2 (negative control) of the 96-well black assay plate (Falcon 353376). • 3. Dispense 200 μL of Solution 1 to Row A Columns 3-12. • 4. Next, dispense 100 μL of Solution 2 to Rows B-H Columns 3-12. • 5. Add 4 μL of 5 mM test compounds in DMSO to Row A Columns 3-12, perform 1:2 serial dilutions Row A to H Columns 3-12. • 6. Finally, dispense 100 μL of Solution 3 in all wells. • 7. Experiment starts. Read Calcium Green-5N fluorescence (excitation 485 nm, emission 538 nm) and perform a train of 4 μL Solution 4 additions with Fluoroskan Ascent FL, Thermo Scientific.

[2] = Table 1, read-out: Rh123 uptake (EC50)
[3] = Table 2, average of >3 experiments ± SEM
[4] = Table 2, average of >3 experiments ± SEM, read-out: Rh123 Assay EC50

EC50 ([1]; Table 1, average ± SEM) [nM]	EC50 [1, 3] [nM]	SMILES	EC50 (IMM potential; [2]) [µM]	Calcium Retention Capacity (CRC/CRC0 at 12.5 μM) (mtPTP; Table 1, average ± SEM)	Calcium Retention Capacity (CRC/CRC0) at 1.56 μM (mtPTP; Table 1, average ± SEM)	EC50 (IMM potential; [4]) [µM]	Calcium Retention Capacity (CRC/CRC0 at 12.5 μM) (mtPTP; [3])
2190 ± 150	–	Cc1cnc(Cl)cc1NC(=O)c1cc(-c2ccc(F)c(O)c2)on1	> 100	3.48 ± 0.51	–	–	–
30 ± 2.6	–	N#Cc1ccc(Cl)cc1NC(=O)c1cc(-c2cccc(O)c2)on1	> 100	13.99 ± 1.50	7.69 ± 0.61	–	–
217 ± 51.8	–	COc1ccc(-c2cc(C(=O)Nc3cc(Cl)ccc3F)no2)cc1O	> 100	5.37 ± 0.58	–	–	–
66 ± 3.2	–	O=C(Nc1cc(Cl)ccc1Cl)c1cc(-c2ccc(F)c(O)c2)on1	> 100	12.15 ± 1.36	6.50 ± 0.77	–	–
35 ± 4.2	–	COc1ccc(-c2cc(C(=O)Nc3cccc(Cl)c3)no2)cc1O	> 100	7.18 ± 0.87	–	–	–
11 ± 1.1	–	COc1ccc(-c2cc(C(=O)Nc3cc(Cl)cnc3C)no2)cc1O	> 100	13.47 ± 1.32	10.10 ± 1.14	–	–
0.0283 ± 0.0048	–	COc1ccc(-c2cc(C(=O)Nc3cccc(Cl)c3C)no2)cc1O	> 100	13.44 ± 0.93	9.59 ± 0.85	–	–
172 ± 14	–	O=C(Nc1cc(Cl)ccc1F)c1cc(-c2cccc(O)c2)on1	> 100	–	3.77 ± 0.17 (at 1.56 μM)	–	–
0.18 ± 0.042	–	Cc1c(Cl)cccc1NC(=O)c1cc(-c2ccc(Cl)c(O)c2)on1	> 100	–	8.22 ± 0.58 (at 1.56 μM)	–	–
146 ± 11.5	–	COc1ccc(-c2cc(C(=O)Nc3cc(Cl)ccc3Cl)no2)cc1O	> 100	9.59 ± 1.29	4.34 ± 0.53	–	–
97 ± 3.4	–	COc1ccc(-c2cc(C(=O)Nc3cc(Cl)ccc3OC)no2)cc1O	> 100	9.89 ± 1.31	6.62 ± 0.84	–	–
3.5 ± 0.7	–	Cc1ccc(Cl)cc1NC(=O)c1cc(-c2cccc(O)c2)on1	> 100	14.99 ± 1.20	9.63 ± 0.29	–	–
277 ± 1	–	COc1ccc(-c2cc(C(=O)Nc3cc(Cl)cc(Cl)c3)no2)cc1O [drawing 126]	> 100	–	1.17 ± 0.11 (at 1.56 μM)	–	–

Second part, the compound before the results:

SMILES	EC50 ([1]; Table 1, average ± SEM) [nM]	EC50 [1, 3] [nM]	EC50 (IMM potential; [2]) [µM]	Calcium Retention Capacity (CRC/CRC0 at 12.5 μM) (mtPTP; Table 1, average ± SEM)	Calcium Retention Capacity (CRC/CRC0) at 1.56 μM (mtPTP; Table 1, average ± SEM)	EC50 (IMM potential; [4]) [µM]	Calcium Retention Capacity (CRC/CRC0 at 12.5 μM) (mtPTP; [3])
COc1c(Cl)cccc1NC(=O)c1cc(-c2cccc(O)c2)on1	42700 ± 2590	–	> 100	1.83 ± 0.17	–	–	–
O=C(Nc1ccc(CN2CCCCC2)cc1)c1cccc(OCc2ccccc2)c1	885 ± 116	–	51.2	3.54 ± 0.28	–	–	–
COc1ccc(Cl)cc1C(=O)Nc1ccc(CN2CCNCC2)cc1 [drawing 151]	6870 ± 423	–	> 100	1.24 ± 0.04	–	–	–
CN1CCN(c2ccc(NS(=O)(=O)c3cc(Cl)cc(Cl)c3)cc2)CC1	21700 ± 1080	–	> 100	1.11 ± 0.03	–	–	–
Cc1ccccc1NC(=O)c1cc(-c2cccc(O)c2)on1	30 ± 2.2	–	> 100	8.16 ± 0.92	–	–	–
O=S(=O)(Nc1ccc(CCN2CCCCC2)cc1)c1ccc(F)c(Cl)c1	29100 ± 2920	–	> 100	1.07 ± 0.03	–	–	–
O=C(Nc1ccc(CN2CCCCC2)cc1)c1cccc(Cl)c1	16000 ± 1580	–	> 100	1.16 ± 0.02	–	–	–
COc1ccc(Cl)cc1C(=O)Nc1cccc(CN2CCNCC2)c1	3270 ± 150	–	> 100	1.52 ± 0.06	–	–	–
O=C(Nc1ccc(CN2CCCCC2)cc1)c1cc(OCc2ccccc2)ccc1Cl [Entry 3]	–	3600 ± 170	–	–	–	75.7 ± 1.8	2.26 ± 0.11
COc1ccc(Cl)cc1C(=O)Nc1ccc(CN2CCNCC2)cc1 [drawing 153]	2150 ± 100	–	> 100	1.65 ± 0.06	–	–	–
O=C(Nc1ccc(CN2CCCCC2)cc1)c1ccc(Cl)c(OCc2ccc(Cl)cc2)c1 [Entry 10]	–	1240 ± 390	–	–	–	24.7 ± 1.5	5.91 ± 0.38
CN1CCN(Cc2ccc(NS(=O)(=O)c3cc(Cl)cc(Cl)c3)cc2)CC1	29200 ± 2100	–	> 100	1.10 ± 0.02	–	–	–
O=C(Nc1cc(Cl)ccc1OCc1ccccc1)c1cc(-c2cccc(O)c2)on1	17600 ± 2210	–	> 100	1.59 ± 0.33	–	–	–
Cc1ncc(Cl)cc1NC(=O)c1cc(-c2cccc(O)c2)on1	24 ± 2.2	–	> 100	10.09 ± 0.91	6.62 ± 0.89	–	–
COc1ccc(Cl)cc1C(=O)Nc1ccc(CCN2CCOCC2)cc1	9000 ± 404	–	> 100	1.23 ± 0.02	–	–	–
COc1ccc(Cl)cc1C(=O)Nc1ccc(CCN2CCNCC2)cc1 [drawing 145]	5850 ± 344	–	> 100	1.37 ± 0.02	–	–	–
Cc1ccc(Cl)cc1NC(=O)c1cc(-c2ccc(F)c(O)c2)[nH]n1	1.4 ± 0.2	–	30.4 ± 5.5	–	10.92 ± 0.74 (at 1.56 μM)	–	–
O=C(Nc1cccc(Cl)c1Cl)c1cc(-c2cccc(O)c2)on1	12500 ± 668	–	> 100	4.00 ± 0.42	–	–	–
O=S(=O)(Nc1ccc(CCN2CCCCC2)cc1)c1cccc(Cl)c1	38700 ± 3670	–	> 100	1.12 ± 0.02	–	–	–
Cc1c(Cl)cccc1NC(=O)c1cc(-c2ccc(F)c(O)c2)on1 [drawing 141]	0.89 ± 0.141	–	> 100	–	12.14 ± 0.55 (at 1.56 μM)	–	–
O=S(=O)(Nc1ccc(CCN2CCCCC2)cc1)c1cc(Cl)cc(Cl)c1	25600 ± 1800	–	> 100	1.17 ± 0.04	–	–	–
